The values below come from publication PMC7301889 (Journal of computer-aided molecular design, 2019).

The structures appear in SMILES notation.

The nature of the data set: Potentiometric. It is filed as physicochemical. The following applies: 1-octanol/water biphasic system, log P (mean ± SEM), octanol / ISA water, neutral species, 25.0 ± 0.5 °C, 150 mM KCl, mean ± SEM of at least three independent replicates.

The compound `FC(F)(F)c1cccc(Nc2ncnc3ccccc23)c1` [SM02, c1ccc2c(c1)c(ncn2)Nc3cccc(c3)C(F)(F)F] came in with a lipophilicity (logP) of 4.09 ± 0.03. `Clc1ccc(CNc2ncnc3ccccc23)cc1` [SM04, c1ccc2c(c1)c(ncn2)NCc3ccc(cc3)Cl] returned a logP of 3.98 ± 0.03. As to `Cc1ccc2[nH]c(=O)c(CC(=O)O)c(-c3ccccc3)c2c1` [SM08, Cc1ccc2c(c1)c(c(c(=O)[nH]2)CC(=O)O)c3ccccc3], the logP was found to be 3.1 ± 0.03.

Regarding `COc1cccc(Nc2ncnc3ccccc23)c1` [SM09, COc1cccc(c1)Nc2c3ccccc3ncn2.Cl], the log partition coefficient (logP) worked out at 3.03 ± 0.07. The result for `Nc1ncnc2c1cnn2-c1ccccc1` [SM11, c1ccc(cc1)n2c3c(cn2)c(ncn3)N] reads 2.1 ± 0.04; that for `Clc1cccc(Nc2ncnc3ccccc23)c1` [SM12, c1ccc2c(c1)c(ncn2)Nc3cccc(c3)Cl.Cl], 3.83 ± 0.03.

For the compound `COc1cc2ncnc(Nc3cccc(C)c3)c2cc1OC` [SM13, Cc1cccc(c1)Nc2c3cc(c(cc3ncn2)OC)OC], the logP was found to be 2.92 ± 0.04.

`Nc1ccc2c(c1)ncn2-c1ccccc1` [SM14, c1ccc(cc1)n2cnc3c2ccc(c3)N] displayed a logP of 1.95 ± 0.03.

`Oc1ccc(-n2cnc3ccccc32)cc1` [SM15, c1ccc2c(c1)ncn2c3ccc(cc3)O]: the logP is 3.07 ± 0.03.

`O=C(Nc1ccncc1)c1c(Cl)cccc1Cl` [SM16, c1cc(c(c(c1)Cl)C(=O)Nc2ccncc2)Cl] yielded a logP of 2.62 ± 0.01.

In general, logP refers to the decadic logarithm of the partition coefficient of the neutral form, usually between octanol and water. High values mean a more lipophilic compound, low ones a more hydrophilic compound.
